From US20130338114A1, “COMPOSITIONS FOR INCREASING STRENGTH, MUSCLE MASS, AND LEAN BODY MASS” (Chemi Nutra, priority 2012, published 2013)
One block for each compound: values may come before it.

Key:
[1] = LC/MS/MS analysis of LPA and PA in human plasma after oral PA (Example 8); details: in vivo
Text: Lyso-phosphatidic acid (LPA) and phosphatidic acid (PA) from human plasma includes a physical distribution of molecules varying in their fatty acids esterified to the sn-1 and sn-2 positions of glycerol-3-phosphate. The differences in polarity among the fatty acid substituted structures provide a means to resolve individual species under reversed phase chromatographic conditions. This analysis coupled with selective mass spectrometric detection based on molecular weight and distinctive fragmentation for LPA and PA compounds provided the basis for quantitation in the samples described herein. Total LPA and PA content are measured as the sum of the individual species measured.
Human plasma of a subject was analyzed after administration of lyso-phosphatidic acid and phosphatidic acid. One subject consumed 2 g of PA in form of Mediator® (Chemi Nutra). The data from the study provided the composition and concentration of PA and lyso-PA in human blood plasma as a baseline value, and changes in PA and lyso-PA concentrations after 30 minutes, 1 hour, 2 hours, 3 hours and 7 hours. It was determined that PA administration results in increases in lyso-PA and PA concentrations in human blood plasma.
An ultra performance liquid chromatograph with triple quadrupole mass spectrometry (LC/MS/MS) method was utilized to measure the content of LPA and PA molecular species in human plasma. A Waters Acquity™ Ultra-performance liquid chromatography system coupled with an AB Sciex 5500 tandem quadrupole mass spectrometer was the instrumentation platform.
Column: Agilent, Eclipse™ XDB-C8 4.6×150 mm, 1.8 μm, sn. USHAN01857, pn. 927975-906. Flow=1 mL/minute at 40° C. Mobile phases: A=70:28.5:1.5 (/v) methanol:water:acetic acid with 0.08% TEA/v;
The identified molecular species were detected using a multiple reaction monitoring (MRM) technique for the -ve mode exact mass of [M-H]^− and the corresponding fragment 153 amu. […]
The content of each molecular species was calculated from the internal standards present in each sample extract. […]

[2] = tested on: known non-responder to creatine supplementation; assay: Creatine non-responder Subject B (MP): body weight and total strength, three-week strength training program; assay type: in vivo, human; details: subject two
Procedure: patient two, 185 cm tall, also a known non-responder to creatine supplementation, followed a three-week strength training program while testing whether supplementation with PA-enriched-phospholipid improves creatine response. Total starting total body weight and strength were measured on day one, followed by the training program, consisting of concentric and eccentric isotonic lifting exercises that worked the upper and lower body muscle groups with either free weights or weight machines used once or twice weekly. Strength training was performed three times per week with at least one day of rest between sessions, which alternated between lower and upper body exercises. During the three-week period, a total of 10 training sessions (five upper body and five lower body) were performed. Each exercise included two sets of ten repetitions at 40% and 65% 1RM, followed by two sets of 3 to 5 repetitions at 90% 1RM.
The lower body exercise included seven different exercises: seated leg press, leg curls, standing calf raises, leg extension, inclined leg lift, inverted situps (back extension) and 45° inclined situps. The upper body exercise consisted of seven different exercises: bench press, latissimus pulldown, triceps pulldown, inclined dumbbell curls, seated preacher curls, seated rows, and CyBec Pec Fly. Total upper body and lower body weight lifted were calculated as the average weight lifted during the last three sets multiplied by the average repetition in each set. Total strength was determined as the combined lower and upper total weight lifted. […] Strength was measured on days 1 and 22.
A four-week rest period followed the first three-week training program. The same program was repeated twice, the control was supplemented with creatine monohydrate (Creapure®, Alzchem, Germany), 5 grams per day of five grams creatine monohydrate for 21 days. During the second program, creatine monohydrate was given as for the control program with the addition of 1 gram per day PA-enriched phospholipid (Chemi Nutra, White Bear Lake, Minn.), which contained about 50% PA.

[3] = tested on: known non-responder to creatine supplementation; assay: Creatine non-responder Subject A (RJ): body weight and total strength, two-week strength training program; assay type: in vivo, human; details: subject one
Procedure: patient one, 198 cm tall, a known non-responder to creatine supplementation, followed a two-week strength training program while testing whether supplementation with PA-enriched-phospholipid improves creatine response. Total starting body weight and strength were measured on day one, followed by the training program, consisting of concentric and eccentric isotonic lifting exercises that worked the upper and lower body muscle groups. Either free weights or weight machines were used once or twice weekly. Strength training was performed three times per week with at least one day of rest between sessions, which alternated between lower and upper body exercises. During the two-week period, a total of six training sessions (three upper and three lower) were performed. Each exercise included two sets of ten repetitions at 30% and 60% 1RM, followed by two sets of 3 to 5 repetitions at 90% 1RM. The lower body exercise included seven different exercises: seated leg press, leg curls, standing calf raises, leg extensions, inclined leg lift, inverted situps (back extension) and 45° inclined situps. The upper body exercise consisted of seven different exercises: bench press, latissimus pulldown, triceps pulldown, inclined dumbbell curls, seated preacher curls, seated rows, and CyBec Pec Fly. Total upper body weight and lower body weight lifted were calculated as the average weight lifted during the last three sets multiplied by the average repetition in each set. Total strength was determined as the combined lower and upper total weight lifted. Total body weight was determined after day 8 and day 15. Strength was measured on days 1 and 15. A four-week rest period followed the first two-week training program. The same program was repeated twice, the control was supplementation of creatine monohydrate (Creapure, Alzchem, Germany) 4 times 5 grams per day for five days of loading, followed by nine days of five grams creatine monohydrate. During the second program, creatine monohydrate was given as for the control program with the addition of PA-enriched phospholipid (Chemi Nutra, White Bear Lake, Minn.) which was about 50% PA.

plasma concentration, Time 0 @10 AM [1]: 13.00 nM
SMILES: CCCCCCCCCCCCCC(=O)OC[C@@H](O)COP(=O)(O)O [14:0 LPA]

SMILES: CN(CC(=O)O)C(=N)N [Creatine Supplement, N-methyl-N-guanyl glycine]
body weight, day 1 ([2]; day 1): 81.9 kg
increase in total strength (total weight lifted) ([2]; day 1 to day 22): 5%
body weight, day 10 ([2]; day 10): 81.5 kg
body weight, day 22 ([2]; day 22): 81.2 kg
body weight, day 1 ([3]; day 1): 88.8 kg
increase in total strength (total weight lifted) ([3]; day 1 to day 15): 5%
body weight, day 8 ([3]; day 8): 88.3 kg
body weight, day 15 ([3]; day 15): 88.0 kg

plasma concentration, Time 0 @10 AM [1]: 0.00 nM
SMILES: CCCCCCCCCCCCCCCCCC(=O)OC[C@@H](O)COP(=O)(O)O [18:0 LPA]

plasma concentration, Time 0 @10 AM [1]: 51.33 nM
SMILES: CCCCCCCCCCCCCCCC(=O)OCC(O)COP(=O)(O)O (centres unmarked) [16:0 LPA]
